Values of other authors in patent publication US9155796B2, “Hydrogels with covalently linked polypeptides” (SUSAVION BIOSCIENCES, INC., priority 2012, dated 2015).

tested on: peripheral blood mononuclear cells (PBMCs); settings: PBMC cultures; within 4 hours

Substance | increased PDGF secretion
(NQHTPR-PEG2-)4-Lys2-Lys-PEG2-Cys[—CH2CH(Me): CH2]—NH2 (not fully specified; tetravalent Lys dendrimer, PEG2 linkers, modified Cys amide; Therapeutic peptide) [SV6D] | two- to four-fold
(VQATQS-PEG2-)4-Lys2-Lys-PEG2-Cys[—CH2CH(Me): CH2]—NH2 (not fully specified; tetravalent Lys dendrimer, PEG2 linkers, modified Cys amide; Therapeutic peptide) [SVC1] | two- to four-fold
(VSNQH-PEG2-)4-Lys2-Lys-PEG2-Cys[—CH2CH(Me): CH2]—NH2 (not fully specified; tetravalent Lys dendrimer, PEG2 linkers, modified Cys amide; Therapeutic peptide) [SVD2] | two- to four-fold
(WNSTL-PEG2-)4-Lys2-Lys-PEG2-Cys[CH2CH(Me): CH2]—NH2 (not fully specified; tetravalent Lys dendrimer, PEG2 linkers, modified Cys amide; Therapeutic peptide) [SVH1B] | two- to four-fold
